According to PubChem BioAssay (NCI):
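Step 1: Grow cells in 96-well plates. Step 2: Expose to compound for 48 hours at 5 concentrations. Step 3: Interpolate endpoints linearly; if unreached, use highest concentration. The concentration for full growth arrest is given as TGI.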

What was measured:
Assay in all cases: inhibition of tumour cell growth, NCI panel, 48 h
[1] = tested on: HCT-15 colon
[2] = tested on: NCI/ADR-RES ovarian
[3] = tested on: PC-3 prostate
[4] = tested on: SN12C renal
[5] = tested on: U251 CNS
[6] = tested on: KM12 colon
[7] = tested on: HOP-62 NSCLC
[8] = tested on: A549 NSCLC
[9] = tested on: DU-145 prostate
[10] = tested on: M14 melanoma
[11] = tested on: BT-549 breast
[12] = tested on: HS 578T breast
[13] = tested on: OVCAR-5 ovarian
[14] = tested on: SK-OV-3 ovarian
[15] = tested on: SF-268 CNS
[16] = tested on: MDA-N
[17] = tested on: NCI-H460 lung
[18] = tested on: HOP-92 NSCLC
[19] = tested on: HL-60(TB) leukemia
[20] = tested on: COLO 205 colon
[21] = tested on: A498 renal
[22] = tested on: TK-10 renal
[23] = tested on: SR leukemia
[24] = tested on: SNB-75 CNS
[25] = tested on: UACC-62 melanoma
[26] = tested on: CCRF-CEM leukemia
[27] = tested on: SF-539 CNS
[28] = tested on: SF-295 CNS
[29] = tested on: MDA-MB-231 breast
[30] = tested on: UO-31 renal
[31] = tested on: NCI-H226 lung
[32] = tested on: UACC-257 melanoma
[33] = tested on: MCF7 breast
[34] = tested on: LOX IMVI melanoma
[35] = tested on: MOLT-4 leukemia
[36] = tested on: SW-620 colon
[37] = tested on: IGROV1 ovarian
[38] = tested on: HCT-116 colon
[39] = tested on: SNB-19 CNS
[40] = tested on: SK-MEL-2 melanoma
[41] = tested on: OVCAR-3 ovarian
[42] = tested on: ACHN renal
[43] = tested on: HT29 colon
[44] = tested on: 786-0 renal
[45] = tested on: OVCAR-8 ovarian
[46] = tested on: T-47D breast
[47] = tested on: SK-MEL-5 melanoma
[48] = tested on: CAKI-1 renal
[49] = tested on: K-562 leukemia
[50] = tested on: EKVX NSCLC
[51] = tested on: MDA-MB-435
[52] = tested on: NCI-H23 lung
[53] = tested on: SK-MEL-28 melanoma
[54] = tested on: RPMI-8226 leukemia
[55] = tested on: NCI-H522 lung
[56] = tested on: HCC-2998 colon
[57] = tested on: RXF 393 renal
[58] = tested on: MALME-3M melanoma
[59] = tested on: OVCAR-4 ovarian

CC(=O)OC1COC(Nn2c(=O)[nH]c3ccccc3c2=O)C(OC(C)=O)C1OC(C)=O (stereo not given)
TGI [1]: > 100 µM | TGI [2]: > 100 µM | TGI [3]: > 100 µM | TGI [4]: > 100 µM | TGI [5]: > 100 µM | TGI [6]: > 100 µM | TGI [7]: > 100 µM | TGI [8]: > 100 µM | TGI [9]: > 100 µM | TGI [10]: > 100 µM | TGI [11]: > 100 µM | TGI [12]: > 100 µM | TGI [13]: > 100 µM | TGI [14]: > 100 µM | TGI [15]: > 100 µM | TGI [16]: > 100 µM | TGI [17]: > 100 µM | TGI [18]: > 100 µM | TGI [19]: > 100 µM | TGI [20]: > 100 µM | TGI [21]: > 100 µM | TGI [22]: > 100 µM | TGI [23]: > 100 µM | TGI [24]: > 100 µM | TGI [25]: > 100 µM | TGI [26]: > 100 µM | TGI [27]: > 100 µM | TGI [28]: > 100 µM | TGI [29]: > 100 µM | TGI [30]: > 100 µM | TGI [31]: > 100 µM | TGI [32]: > 100 µM | TGI [33]: > 100 µM | TGI [34]: > 100 µM | TGI [35]: > 100 µM | TGI [36]: > 100 µM | TGI [37]: > 100 µM | TGI [38]: > 100 µM | TGI [39]: > 100 µM | TGI [40]: > 100 µM | TGI [41]: > 100 µM | TGI [42]: > 100 µM | TGI [43]: > 100 µM | TGI [44]: > 100 µM | TGI [45]: > 100 µM | TGI [46]: > 100 µM | TGI [47]: > 100 µM | TGI [48]: > 100 µM | TGI [49]: > 100 µM | TGI [50]: > 100 µM | TGI [51]: > 100 µM | TGI [52]: > 100 µM | TGI [53]: > 100 µM | TGI [54]: > 100 µM

COC(=O)[C@@H]1C[C@]2(CC=C(C)C)c3ccccc3N(S(=O)(=O)c3ccccc3)[C@@H]2N1C(=O)OC
TGI [1]: 55.8 µM | TGI [2]: 83.1 µM | TGI [3]: > 100 µM | TGI [4]: > 100 µM | TGI [5]: 41.8 µM | TGI [6]: > 100 µM | TGI [7]: > 100 µM | TGI [8]: > 100 µM | TGI [9]: > 100 µM | TGI [11]: > 100 µM | TGI [12]: 66.9 µM | TGI [13]: > 100 µM | TGI [14]: > 100 µM | TGI [15]: 99.3 µM | TGI [16]: > 100 µM | TGI [17]: 94 µM | TGI [18]: > 100 µM | TGI [19]: 33.5 µM | TGI [20]: > 100 µM | TGI [22]: > 100 µM | TGI [23]: 99.3 µM | TGI [24]: 38.2 µM | TGI [25]: 51.8 µM | TGI [55]: 67.3 µM | TGI [26]: > 100 µM | TGI [27]: 86.3 µM | TGI [28]: > 100 µM | TGI [29]: > 100 µM | TGI [30]: > 100 µM | TGI [31]: 89.1 µM | TGI [32]: 51.6 µM | TGI [33]: 48.5 µM | TGI [34]: > 100 µM | TGI [35]: > 100 µM | TGI [56]: 40.1 µM | TGI [57]: 43.9 µM | TGI [36]: > 100 µM | TGI [38]: > 100 µM | TGI [39]: > 100 µM | TGI [40]: 34.3 µM | TGI [41]: > 100 µM | TGI [42]: > 100 µM | TGI [43]: > 100 µM | TGI [58]: > 100 µM | TGI [44]: > 100 µM | TGI [45]: 86.5 µM | TGI [46]: > 100 µM | TGI [47]: 26 µM | TGI [48]: > 100 µM | TGI [49]: > 100 µM | TGI [50]: 27.5 µM | TGI [51]: 45 µM | TGI [52]: > 100 µM | TGI [53]: > 100 µM | TGI [54]: 42.6 µM | TGI [59]: > 100 µM
